# In ChEMBL document CHEMBL5537195, “Novel Covalent Probe Selectively Targeting Glutathione Peroxidase 4 In Vivo: Potential Applications in Pancreatic Cancer Therapy” (J Med Chem, 2024):
# Active and inactive are the calls of the source. The calls are words filed in the database; no cut-off is given here.
# What was measured:
# [1] = test system: ASPC1; assay: Antitumor activity against human ASPC1 cells xenografted in NOD-SCID mouse assessed as tumor growth inhibition at 10 mg/kg, ip administered for 14 days; assay type: functional; settings: ASPC1, 336 h, time 14 day, read-out: TGI
# [2] = test system: ASPC1; assay: Induction of ferroptosis in human ASPC1 cells assessed as reduction in cell viability incubated for 72 hrs by CCK-8 assay; assay type: functional, cell-based; settings: ASPC1, 72 h
# [3] = test system: ASPC1; assay: Antitumor activity against human ASPC1 cells xenografted in NOD-SCID mouse assessed as reduction in tumor weight at 10 mg/kg, ip administered for 14 days; assay type: functional, organism-based; settings: time 14.0 day
# [4] = test system: HCT-116; assay: Induction of ferroptosis in human HCT-116 cells assessed as reduction in cell viability incubated for 72 hrs by CCK-8 assay; assay type: functional, cell-based; settings: HCT-116, 72 h
# [5] = test system: Capan-2; assay: Antiproliferative activity against human Capan-2 cells assessed as inhibition of cell growth incubated for 72 hrs by CCK-8 assay; assay type: functional, cell-based
# [6] = Half life in Sprague-Dawley rat at 2 mg/kg, iv measured upto 48 hrs by LC-MS/MS analysis; assay type: ADME, organism-based; settings: in vivo
# [7] = biological target: T1, Phospholipid hydroperoxide glutathione peroxidase GPX4 (Homo sapiens) (UniProt P36969); assay: Competitive binding affinity to GPX4 in human ASPC1 cells at 0.2 uM incubated for 1 hr in presence of ML162; assay type: cell-based
# T1 sequence (whole entry): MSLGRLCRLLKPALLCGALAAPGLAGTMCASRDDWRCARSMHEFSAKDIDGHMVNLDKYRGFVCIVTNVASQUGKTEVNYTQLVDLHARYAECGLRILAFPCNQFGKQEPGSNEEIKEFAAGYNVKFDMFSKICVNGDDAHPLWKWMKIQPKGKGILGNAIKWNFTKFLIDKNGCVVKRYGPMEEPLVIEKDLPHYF
# [8] = biological target: T1, Phospholipid hydroperoxide glutathione peroxidase GPX4 (Homo sapiens); assay: Binding affinity to GPX4 in human ASPC1 cells at 0.2 uM incubated for 1 hr in presence of 4-(((4-(benzo[d]thiazol-2-yl)phenyl)(methyl)amino)methyl)-N-ethynyl-N-methylbenzenesulfonamide by SDS-PAGE analysis; assay type: cell-based
# [9] = biological target: T1, Phospholipid hydroperoxide glutathione peroxidase GPX4 (Homo sapiens); assay: Competitive binding affinity to GPX4 in human ASPC1 cells at 0.2 uM incubated for 1 hr in presence of ML162 by immunofluorescence based confocal microscopic analysis; assay type: cell-based
# [10] = biological target: T1, Phospholipid hydroperoxide glutathione peroxidase GPX4 (Homo sapiens); assay: Competitive binding affinity to GPX4 (unknown origin) at 0.2 uM incubated for 5 hrs in presence of 4-(((4-(benzo[d]thiazol-2-yl)phenyl)(methyl)amino)methyl)-N-ethynyl-N-methylbenzenesulfonamide by pull-down based Western blot analysis
# [11] = biological target: T1, Phospholipid hydroperoxide glutathione peroxidase GPX4 (Homo sapiens); assay: Binding affinity to GPX4 in human ASPC1 cells at 0.2 uM incubated for 1 hr by immunofluorescence based confocal microscopic analysis; assay type: cell-based
# [12] = test system: ASPC1; assay: Induction of ferroptosis in human ASPC1 cells with siRNA mediated GPX4 knockdown assessed as reduction in cell viability incubated for 72 hrs by CCK-8 assay; assay type: functional, cell-based
# [13] = Cmax in Sprague-Dawley rat at 2 mg/kg, iv measured upto 48 hrs by LC-MS/MS analysis; assay type: ADME, organism-based; settings: in vivo
# [14] = test system: ASPC1; assay: Induction of ferroptosis in human ASPC1 cells assessed as reduction in cell viability incubated for 48 hrs by CCK-8 assay; assay type: functional, cell-based; settings: ASPC1, 48 h
# [15] = test system: PANC-1; assay: Antiproliferative activity against human PANC-1 cells assessed as inhibition of cell growth incubated for 72 hrs by CCK-8 assay; assay type: functional, cell-based; settings: PANC-1, 72 h
# [16] = test system: ASPC1; assay: Induction of ferroptosis in human ASPC1 cells assessed as decrease in intracellular GSH level at 5 uM incubated for 5 hrs in presence of […]; assay type: functional, cell-based
# [17] = biological target: T1, Phospholipid hydroperoxide glutathione peroxidase GPX4 (Homo sapiens); assay: Binding affinity to GPX4 in human ASPC1 cells assessed as thermal stability at 10 uM at 43 to 64 degreeC for 3 mins by CETSA analysis; assay type: cell-based
# [18] = test system: ASPC1; assay: Induction of ferroptosis in human ASPC1 cells assessed as reduction in cell viability incubated for 72 hrs followed by compound washout by CCK-8 assay; assay type: functional, cell-based; settings: ASPC1, 72 h
# [19] = test system: ASPC1; assay: Induction of ferroptosis in human ASPC1 cells assessed as cell death at 2 uM in presence of Z-VAD-FMK; assay type: functional, cell-based
# [20] = test system: ASPC1; assay: Induction of ferroptosis in human ASPC1 cells assessed as cell death at 2 uM in presence of Ferrostatin-1; assay type: functional, cell-based
# [21] = biological target: T1, Phospholipid hydroperoxide glutathione peroxidase GPX4 (Homo sapiens); assay: Binding affinity to GPX4 in human MIA PaCa-2 cells at 0.2 uM incubated for 1 hr by SDS-PAGE analysis; assay type: cell-based
# [22] = biological target: T1, Phospholipid hydroperoxide glutathione peroxidase GPX4 (Homo sapiens); assay: Binding affinity to GPX4 in human CFPAC-1 cells at 0.2 uM incubated for 1 hr by SDS-PAGE analysis; assay type: cell-based
# [23] = test system: MIA PaCa-2; assay: Antiproliferative activity against human MIA PaCa-2 cells assessed as inhibition of cell growth incubated for 72 hrs by CCK-8 assay; assay type: functional, cell-based; settings: MIA PaCa-2, 72 h
# [24] = biological target: T1, Phospholipid hydroperoxide glutathione peroxidase GPX4 (Homo sapiens); assay: Competitive binding affinity to GPX4 in human ASPC1 cells at 0.2 uM incubated for 1 hr in presence of 4-(((4-(benzo[d]thiazol-2-yl)phenyl)(methyl)amino)methyl)-N-ethynyl-N-methylbenzenesulfonamide by immunofluorescence based confocal microscopic analysis; assay type: cell-based
# [25] = test system: SW1990; assay: Antiproliferative activity against human SW1990 cells assessed as inhibition of cell growth incubated for 72 hrs by CCK-8 assay; assay type: functional, cell-based; settings: SW1990, 72 h
# [26] = test system: CFPAC-1; assay: Antiproliferative activity against human CFPAC-1 cells assessed as inhibition of cell growth incubated for 72 hrs by CCK-8 assay; assay type: functional, cell-based; settings: CFPAC-1, 72 h
# [27] = AUC (0 to t) in Sprague-Dawley rat at 2 mg/kg, iv measured upto 48 hrs by LC-MS/MS analysis; assay type: ADME, organism-based; settings: in vivo
# [28] = test system: BXPC-3; assay: Antiproliferative activity against human BXPC-3 cells assessed as inhibition of cell growth incubated for 72 hrs by CCK-8 assay; assay type: functional, cell-based; settings: BXPC-3, 72 h
# [29] = biological target: T1, Phospholipid hydroperoxide glutathione peroxidase GPX4 (Homo sapiens); assay: Binding affinity to GPX4 in human SW1990 cells at 0.2 uM incubated for 1 hr by SDS-PAGE analysis; assay type: cell-based
# [30] = test system: ASPC1; assay: Induction of ferroptosis in human ASPC1 cells assessed as cell death at 2 uM in presence of 3-methyladenine; assay type: functional, cell-based
# [31] = test system: NCI-H522; assay: Induction of ferroptosis in human NCI-H522 cells assessed as reduction in cell viability incubated for 72 hrs by CCK-8 assay; assay type: functional, cell-based; settings: NCI-H522, 72 h
compound,measurement,setting,value
C#CCN(Cc1ccc(S(=O)(=O)N(C)C#C)cc1)c1ccc(-c2nc3ccccc3s2)cc1,inhibition in vivo at 10 mg/kg,[1],28%
same,IC50,[2],14 nM
same,Activity,[3],Active
same,IC50,[4],> 10000 nM
same,Activity,[5],inactive
same,half-life,[6],2.55 h
same,Activity,[7],Active
same,Activity,[8],Active
same,Activity,[9],inactive
same,Activity,[10],Active
same,Activity,[11],Active
same,Activity,[12],Active
same,Cmax,[13],2250 ng/mL
same,IC50,[14],26 nM
same,IC50,[15],20 nM
same,Activity,[16],Active
same,Activity,[17],Active
same,IC50,[18],29 nM
same,Activity,[19],inactive
same,Activity,[20],inactive
same,Activity,[21],Active
same,Activity,[22],Active
same,IC50,[23],20 nM
same,Activity,[24],inactive
same,IC50,[25],20 nM
same,IC50,[26],20 nM
same,AUC(0-t) at 48 h,[27],915 ng·h/mL
same,IC50,[28],20 nM
same,Activity,[29],Active
same,Activity,[30],inactive
same,IC50,[31],3 nM
